Test results taken from paper PMC7355546, “Lignans, Amides, and Saponins from Haplophyllum tuberculatum and Their Antiprotozoal Activity” (Molecules, 2020).
Values joined by “and” are separate entries in the source; they are usually repeats but may differ in a detail not shown here. Equal values may be shown once. Read-outs that look alike come from different tables or passages of the source.

How the values were obtained:
P. falciparum = settings: cited from earlier work
[1] = In vitro cytotoxicity with L-6 cells (resazurin); format: cell-based; settings: unit inferred, the other IC50 columns are µM, read-out: L6 Cells (cytotoxicity IC50)
Experimental: Assays were performed in 96-well microtiter plates, each well containing 100 μL of RPMI 1640 medium supplemented with 1% L-glutamine (200 mM) and 10% fetal bovine serum, and 4000 L-6 cells (a primary cell line derived from rat skeletal myoblasts). […] 10 μL of resazurin was then added to each well and the plates incubated for another 2 h. […] Podophyllotoxin (Sigma P4405) was used as control.

[2] = tested on: L. donovani promastigote form; design: method as in PMID 18688887; settings: cited from earlier work
P. falciparum (NF54) = assay: Activity against Plasmodium falciparum erythrocytic stages (3H-hypoxanthine incorporation); format: cell-based; settings: for P. falciparum SI (selectivity index): IC50 in L6 cells divided by IC50 in P. falciparum
[3] = tested on: L. donovani intracellular amastigotes in mouse peritoneal macrophages; assay: Activity against Leishmania donovani intramacrophage amastigotes; format: cell-based; settings: tested up to 30 μM
Experimental: Mouse peritoneal macrophages (4 × 10^4 in 100 µL RPMI 1640 medium with 10% heat-inactivated FBS) were seeded into wells of a 96-well plate. After 24 h, 100 µL of 2 × 10^5 amastigote Leishmania donovani were added. The amastigotes were taken from an axenic amastigote culture grown at pH 5.4. The medium containing free amastigote forms was removed after 24 h and replaced with fresh medium. The washing step was repeated and afterwards the serial drug dilution was prepared with at least 6 dilution steps. Compound was dissolved in DMSO at 10 mg/mL and further diluted in medium. After incubation for 96 h at 37 °C under a 5% CO2 atmosphere, the medium was removed and cells were fixed by adding 50 µL 4% formaldehyde solution followed by a staining with a 5 µM DRAQ5 solution. Plates were imaged in ImageXpress XLS (MD) microscope using a 20× air objective (635 nm excitation: 690/50 emission). Nine images were collected per well. Automated image analysis was performed with a script developed on Meta Xpress Software (MD). Three outputs were provided for each well: (i) number of host cell nuclei; (ii) numbers of infected and non-infected host cells; (iii) number of parasite nuclei per infected host cell. The IC50 values were calculated based on the infection rate and the numbers of intracellular amastigotes. Miltefosine was used as control.

[4] = tested on: T. b. rhodesiense (STIB 900) bloodstream forms; assay: Activity against Trypanosoma brucei rhodesiense bloodstream forms (resazurin); format: cell-based; settings: for T. b. rhodesiense SI (selectivity index): IC50 in L6 cells divided by IC50 in T. b. rhodesiense; for IC50: read-out: T. b. rhodesiense IC50; for activity against T. b. rhodesiense (in words): STIB 900
Experimental: The stock was originally isolated from a patient and adapted to axenic culture conditions after several mouse passages and cloned. Minimum Essential Medium (50 µL) supplemented with 25 mM HEPES, 1 g/L additional glucose, 1% MEM non-essential amino acids (100×), 0.2 mM 2-mercaptoethanol, 1mM Na-pyruvate and 15% heat inactivated horse serum was added to each well of a 96-well microtiter plate. […] Then 4 × 10^3 bloodstream forms of T. b. rhodesiense STIB 900 in 50 µL were added to each well and the plate incubated at 37 °C under a 5% CO2 atmosphere for 70 h. […] Melarsoprol (Arsobal Sanofi-Aventis, received from WHO) was used as control.

trypanosomes = settings: cited from earlier work
[5] = NF54, mean of at least two independent replicates ± absolute deviation, read-out: P. falciparum IC50
[6] = Plasmodium falciparum, NF54, NF54, mean of at least two independent replicates ± absolute deviation, read-out: P. falciparum IC50
[7] = Trypanosoma brucei, STIB 900 bloodstream forms, mean of at least two independent replicates ± absolute deviation
[8] = L-6 cells (rat skeletal myoblasts)
[9] = STIB 900 bloodstream forms, mean of at least two independent replicates ± absolute deviation

## COc1cc2c(OC)c3c(c(-c4ccc5c(c4)OCO5)c2cc1OC)C(=O)OC3 [Justicidin A]
P. falciparum
  activity against P. falciparum (in words): active

## COc1cc([C@H]2O[C@@H](c3ccc(O)c(OC)c3)[C@H](C)[C@@H]2C)ccc1O [Compound 2, nectandrin B]
[1]; rat skeletal myoblasts
  IC50 at 72 h: 115 ± 2.6 µM
[2]
  activity against L. donovani promastigotes (in words): inactive
P. falciparum (NF54)
  P. falciparum SI (selectivity index): 12.1
P. falciparum (NF54); [5]
  IC50: 9.5 ± 0.1 µM
P. falciparum (NF54); [6]
  IC50: 9 to 9.5 µM
[3]; Leishmania donovani, Peritoneal macrophage, read-out: activity against L. donovani in the intracellular amastigote assay
  IC50: > 30 µM
[3]
  activity against L. donovani in the intracellular amastigote assay: not reproduced
[4]
  T. b. rhodesiense SI (selectivity index): 2.4
[4]; [7]
  IC50: 48.3 ± 1.3 µM

## COc1cc([C@H]2O[C@@H](c3cc(OC)c(O)c(OC)c3)[C@@H](C)[C@@H]2C)cc(OC)c1O [Compound 4, fragransin B1]
[1]; [8]
  IC50 at 72 h: 163 ± 4.5 µM
P. falciparum (NF54)
  P. falciparum SI (selectivity index): 8.0
P. falciparum (NF54); [5]
  IC50: 17.4 ± 2.1 µM
P. falciparum (NF54); [6]
  IC50: 17 µM
[4]
  T. b. rhodesiense SI (selectivity index): 3.4
[4]; [7]
  IC50: 40.7 ± 0.4 µM

## COc1cc([C@H]2O[C@H](c3cc(OC)c(O)c(OC)c3)[C@@H](C)[C@@H]2C)cc(OC)c1O [Compound 3, fragransin B2]
P. falciparum (NF54)
  P. falciparum SI (selectivity index): 4.7
P. falciparum (NF54); [6]
  IC50: 36.1 ± 1 µM
[4]
  T. b. rhodesiense SI (selectivity index): 3.6
[4]; [7]
  IC50: 47.5 ± 4.5 µM

## COc1cc(C(=O)/C(C)=C(/C)C(=O)c2ccc(O)c(OC)c2)ccc1O [Compound 7, furoguaiaoxidin]
[1]; [8]
  IC50 at 72 h: > 281 µM
P. falciparum (NF54); [6]
  IC50: 48.1 ± 10.9 µM
[4]; [7]
  IC50: 114 µM

## COc1cc2cc3c(c(-c4ccc5c(c4)OCO5)c2cc1OC)C(=O)CO3 [Justicidin B]
trypanosomes
  trypanocidal activity (in words): showed trypanocidal activity

## COc1cc([C@@H]2c3cc4c(cc3[C@H](O)[C@H]3COC(=O)[C@H]23)OCO4)cc(OC)c1OC [podophyllotoxin, reference compound]
[1]; rat skeletal myoblasts
  IC50 at 72 h: 0.03 µM

## CCN(CC)CCCC(C)Nc1ccnc2cc(Cl)ccc12 (centres unmarked) [chloroquine, reference compound]
P. falciparum (NF54); Plasmodium falciparum, NF54, read-out: P. falciparum IC50
  IC50: 0.01 µM

## COc1cc(/C=C/C(=O)NCCc2ccc(O)cc2)ccc1O [Compound 6, (E)-N-feruloyltyramine]
[1]; rat skeletal myoblasts
  IC50 at 72 h: 247 ± 3.7 µM
P. falciparum (NF54)
  P. falciparum SI (selectivity index): 3.6
P. falciparum (NF54); [6]
  IC50: 68.4 ± 3.8 µM
[4]
  T. b. rhodesiense SI (selectivity index): 2.0
  activity against T. b. rhodesiense (in words): least active
[4]; [7]
  IC50: 121 ± 36.9 µM

## COc1cc(CCC(=O)NCCc2ccc(O)cc2)ccc1O [Compound 5, dihydro-feruloyltyramine]
[1]; [8]
  IC50 at 72 h: > 318 µM
P. falciparum (NF54); NF54
  activity against P. falciparum (in words): least active
P. falciparum (NF54); [6]
  IC50: 159 µM
[4]
  activity against T. b. rhodesiense (in words): least active
[4]; [7]
  IC50: 206 ± 66.7 µM

## COc1cc(CC(C)C(CO)Cc2ccc(O)c(OC)c2)ccc1O (centres unmarked) [Compound 10, 3,3′-dimethoxy-4,4′-dihydroxylignan-9-ol]
[1]; [8]
  IC50 at 72 h: 128 ± 3.9 µM
P. falciparum (NF54)
  P. falciparum SI (selectivity index): 13.7
P. falciparum (NF54); NF54
  activity against P. falciparum (in words): selectively active
P. falciparum (NF54); [5]
  IC50: 9.3 ± 1.3 µM
P. falciparum (NF54); [6]
  IC50: 9 to 9.5 µM
[4]
  T. b. rhodesiense SI (selectivity index): 5 and 4.6
[4]; [9]
  IC50: 27.5 ± 8.4 µM
[4]; [7]
  IC50: 28 µM

## CCOC(CNC(=O)/C=C/c1ccc(O)c(OC)c1)c1ccc(O)cc1 (centres unmarked) [Compound 9, 7′-ethoxy-feruloyltyramine]
[1]; [8]
  IC50 at 72 h: 208 ± 21.6 µM
P. falciparum (NF54)
  P. falciparum SI (selectivity index): 6.8
P. falciparum (NF54); [6]
  IC50: 30.4 ± 8 µM
[4]
  T. b. rhodesiense SI (selectivity index): 2.9
[4]; [7]
  IC50: 72.7 ± 30.4 µM

## Nc1nc(N)nc(Nc2ccc([As]3SCC(CO)S3)cc2)n1 (centres unmarked) [melarsoprol, reference compound]
[4]; Trypanosoma brucei
  IC50: 0.01 µM

## COc1cc([C@H]2O[C@@H](c3ccc(O)c(OC)c3)[C@@H](C)[C@H]2C)ccc1O [Compound 1, tetrahydrofuroguaiacin B]
[1]; rat skeletal myoblasts
  IC50 at 72 h: 95.2 ± 9.3 µM
P. falciparum (NF54)
  P. falciparum SI (selectivity index): 1.8
P. falciparum (NF54); [6]
  IC50: 53.1 ± 2 µM
[4]
  T. b. rhodesiense SI (selectivity index): 1.6
[4]; [7]
  IC50: 59.4 ± 2.5 µM

## COc1cc(/C=C/C(=O)NCCCCNC(=O)/C=C/c2ccc(O)c(OC)c2)ccc1O [Compound 8, N,N′-diferuloylputrescine]
[1]; [8]
  IC50 at 72 h: 146 ± 18.8 µM
P. falciparum (NF54)
  P. falciparum SI (selectivity index): 4.8
P. falciparum (NF54); [6]
  IC50: 30.6 ± 8.3 µM
[4]
  T. b. rhodesiense SI (selectivity index): 8 and 7.8
[4]; [9]
  IC50: 18.9 ± 8.4 µM
[4]; [7]
  IC50: 19 µM
